Test results published in publication PMC8496261 (RSC Chemical Biology, 2021).
Numbered stars: 1 amine (or outer) side, 2 acyl side, 3 side chain; on linkers, the order of the positions; unused ones are H or OH. Bridge positions count the residues as written; N and C are the ends. Peptide text beside a SMILES is read from it. * marks the point of attachment. FITC = O=C1OC2(c3ccc(O)cc3Oc3cc(O)ccc32)c2ccc(NC(=S)*)cc21; X1 = Cc1c(C[*:1])n2c(C[*:2])c(C)c(=O)n2c1=O; βAla = NCCC(=O)O

Assays:
PCNA (hPCNA) = PCNA (hPCNA) (Homo sapiens, UniProt P12004); test: SPR steady state binding affinity for PCNA; details: for PCNA binding affinity, in words: SPR, 2 compared with peptide 1, 9 compared with peptide 7
[1] = tested on: MDA-MB-468 breast cancer cells (mKate nuclear label); test: Cell uptake assay imaged by confocal fluorescence microscopy; assay type: cell-based, human; details: MDA-MB-468 cells, 10 μM peptide, 24 h, fixed

Sequence of PCNA (hPCNA) (P12004 whole entry): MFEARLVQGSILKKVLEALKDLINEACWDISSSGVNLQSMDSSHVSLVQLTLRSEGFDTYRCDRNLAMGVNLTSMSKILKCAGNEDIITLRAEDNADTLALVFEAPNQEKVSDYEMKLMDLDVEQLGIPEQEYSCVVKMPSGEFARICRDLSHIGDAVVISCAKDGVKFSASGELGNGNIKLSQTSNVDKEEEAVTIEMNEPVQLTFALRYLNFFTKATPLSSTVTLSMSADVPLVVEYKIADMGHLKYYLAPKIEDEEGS

| Compound | Kd (PCNA (hPCNA); SEM) [nM] | intracellular distribution of peptide fluorescence [1] | PCNA binding affinity, in words (PCNA (hPCNA)) |
| --- | --- | --- | --- |
| CSCC[C@H](NC(=O)[C@H](CO)NC(=O)[C@@H](NC(=O)[C@H](CCC(N)=O)NC(=O)[C@@H](N)CCCNC(=N)N)[C@@H](C)O)C(=O)N[C@H](C(=O)N[C@@H](CC(=O)O)C(=O)N[C@@H](Cc1ccccc1)C(=O)N[C@@H](Cc1ccc(O)cc1)C(=O)N[C@@H](Cc1c[nH]cn1)C(=O)N[C@@H](CO)C(=O)N[C@@H](CCCCN)C(N)=O)[C@@H](C)O [Peptide 1] (H-RQTSMTDFYHSK-NH2) | 102 ± 5 | – | – |
| CSCC[C@@H]1NC(=O)[C@H](CO)NC(=O)[C@@H](NC(=O)[C@H](CCC(N)=O)NC(=O)[C@H](CCCNC(=N)N)NC(=O)CCNC(=S)Nc2ccc3c(c2)C(=O)OC32c3ccc(O)cc3Oc3cc(O)ccc32)CSCc2c(C)c(=O)n3c(=O)c(C)c(n23)CSC[C@@H](C(=O)N[C@@H](Cc2ccccc2)C(=O)N[C@@H](Cc2ccc(O)cc2)C(=O)N[C@@H](Cc2c[nH]cn2)C(=O)N[C@@H](CO)C(=O)N[C@@H](CCCCN)C(N)=O)NC(=O)[C@H]([C@@H](C)O)NC1=O [Peptide 9] ({FITC-βAla}-RQCSMTCFYHSK-NH2; linker 3-7 via X1) | – | both blue and green fluorescence present throughout the cell cytoplasm | dramatically decreases the binding affinity |
| Ac-RQCSMTCFYHSK-NH2 [Peptide 2] | – | – | significantly reduced PCNA affinity |
